These results are taken from ChEMBL document CHEMBL1201862, “PubChem BioAssay data set” (2004).

Among the test systems are SK-MEL-2; SK-MEL-28; EKVX; K562; SK-MEL-5; UACC-257; Hs-578T; MOLT-4; SNB-75; CCRF-CEM; PC-3; CAKI-1; RXF 393; SF-295; RPMI-8226; HOP-62; NCI-H226; HL-60; NCI/ADR-RES.
What all share (test): growth of human tumour cells (NCI), 48 h

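In this assay, cells in 96-well plates receive the compound at five concentrations for 48 hours. Endpoints are linearly interpolated between the surrounding concentrations. Abbreviation: GI50, concentration required for 50% inhibition of growth.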 Active and inactive are the calls of the source. No stated cut-off is given here; in the data, active = GI50 up to about 1.1 µM and inactive = higher.

For `O=[N+]([O-])C(=C1Nc2ccccc2N1)C(Cl)=C(Cl)Cl`, the GI50 in the experiment on SK-MEL-2 is > 100 µM (inactive); in the experiment on SK-MEL-28 it was > 100 µM (inactive); with EKVX, > 100 µM (inactive); in the experiment with K562 it was 81.7 µM (inactive); in the experiment with SK-MEL-5 it was > 100 µM (inactive); with UACC-257, > 100 µM (inactive). Also, the GI50 in the experiment on Hs-578T was 49.8 µM (inactive); with MOLT-4 it was 19.8 µM (inactive); with SNB-75 it was < 0.01 µM (active); with CCRF-CEM it was 32.4 µM (inactive); in the experiment on PC-3, > 100 µM (inactive); with CAKI-1, > 100 µM (inactive). In addition, the GI50 with RXF 393 is 99.1 µM (inactive); with SF-295, > 100 µM (inactive); with RPMI-8226 it was 70 µM (inactive); with HOP-62, > 100 µM (inactive); with NCI-H226 it was > 100 µM (inactive); in the experiment on HL-60, 65.6 µM (inactive).

For `NS(=O)(=O)c1ccc(NC2=CC(=O)C(=O)c3ccccc32)cc1`, the GI50 in the experiment on SK-MEL-2, in the experiment with SK-MEL-28, with EKVX, in the experiment with K562, in the experiment with SK-MEL-5 and in the experiment with UACC-257 was > 100 µM (inactive) each time. Moreover, the GI50 is 72.1 µM (inactive) with MOLT-4; > 100 µM (inactive) in the experiment on SNB-75; > 100 µM (inactive) with CCRF-CEM; > 100 µM (inactive) with CAKI-1; > 100 µM (inactive) in the experiment on RXF 393; > 100 µM (inactive) in the experiment on SF-295. Moreover, the GI50 in the experiment on RPMI-8226, in the experiment with HOP-62, with NCI-H226 and with HL-60 was > 100 µM (inactive) throughout.

As for `COc1ccc(C2CC(c3ccccc3)=Nc3c(-c4ccccc4)nnn32)cc1` (stereo not given), the GI50 in the experiment with SK-MEL-2 is 44.4 µM (inactive); with K562 it was > 100 µM (inactive); in the experiment with SK-MEL-5, 9.27 µM (inactive); in the experiment on UACC-257, > 100 µM (inactive); in the experiment with Hs-578T, 51.2 µM (inactive); in the experiment with MOLT-4 it was > 100 µM (inactive). Also, the GI50 is > 100 µM (inactive) in the experiment on CCRF-CEM; 72.6 µM (inactive) in the experiment with PC-3; 98.4 µM (inactive) with CAKI-1; > 100 µM (inactive) in the experiment on SF-295; 12.8 µM (inactive) in the experiment on RPMI-8226; > 100 µM (inactive) in the experiment on NCI/ADR-RES. The GI50 with HOP-62 was 96.2 µM (inactive); in the experiment on NCI-H226, > 100 µM (inactive); in the experiment on HL-60, > 100 µM (inactive).

Take `N#CCN1C(=O)c2cc([N+](=O)[O-])cc3cc([N+](=O)[O-])cc(c23)C1=O`: the GI50 was 3.94 µM (inactive) with SK-MEL-2; 19 µM (inactive) in the experiment on SK-MEL-28; 23.6 µM (inactive) with EKVX; 5.68 µM (inactive) with K562; 15.6 µM (inactive) in the experiment with SK-MEL-5; 15.1 µM (inactive) with UACC-257. The GI50 was 2.38 µM (inactive) with MOLT-4; 26.1 µM (inactive) in the experiment on SNB-75; 2.77 µM (inactive) in the experiment on CCRF-CEM; 23.9 µM (inactive) in the experiment on CAKI-1; 8.28 µM (inactive) with RXF 393; 30.5 µM (inactive) in the experiment with SF-295. For the same compound, the GI50 in the experiment with RPMI-8226 is 5.51 µM (inactive); in the experiment on HOP-62, 18.8 µM (inactive); in the experiment on NCI-H226 it was 21.6 µM (inactive); with HL-60 it was 3.21 µM (inactive).

As to `COC(=O)N1C[C@@]2(C=CC3(CC2)OCCO3)c2ccccc21`, the GI50 with SK-MEL-2 is > 100 µM (inactive); in the experiment on SK-MEL-28 it was 67.1 µM (inactive); with EKVX, 62.1 µM (inactive); in the experiment on K562 it was 48 µM (inactive); with SK-MEL-5, 81.7 µM (inactive); with UACC-257 it was 71.3 µM (inactive). The GI50 was 58.3 µM (inactive) in the experiment on MOLT-4; 53.6 µM (inactive) in the experiment with SNB-75; 45.2 µM (inactive) in the experiment with CCRF-CEM; 63.7 µM (inactive) with PC-3; > 100 µM (inactive) with CAKI-1; > 100 µM (inactive) with SF-295. The GI50 is 61.1 µM (inactive) in the experiment on RPMI-8226, 28.6 µM (inactive) in the experiment with NCI/ADR-RES, > 100 µM (inactive) in the experiment on HOP-62 and 11.2 µM (inactive) in the experiment on HL-60.

As for `COC(=O)N/N=C(/CCC(=O)Nc1ccc(C)c(C)c1)CC(=O)C(C)(C)C`, the GI50 with SK-MEL-2, in the experiment on SK-MEL-28, with EKVX, in the experiment with K562, in the experiment with SK-MEL-5 and in the experiment with UACC-257 was > 100 µM (inactive) each time. Further, the GI50 in the experiment on MOLT-4, in the experiment with SNB-75, in the experiment on CCRF-CEM, in the experiment on CAKI-1, in the experiment with RXF 393 and in the experiment with SF-295 was > 100 µM (inactive) each time. The GI50 in the experiment on RPMI-8226, with HOP-62, in the experiment with NCI-H226 and with HL-60 was > 100 µM (inactive) each time.

For the compound `COc1ccc(Cc2c3cc(O)c([O-])cc3cc[n+]2C)cc1`, the GI50 is 65.9 µM (inactive) in the experiment with SK-MEL-2; 22.3 µM (inactive) in the experiment on SK-MEL-28; > 73.6 µM (inactive) with EKVX; 6.61 µM (inactive) in the experiment with K562; 20.6 µM (inactive) with SK-MEL-5; 28.4 µM (inactive) with UACC-257. For the same compound, the GI50 in the experiment on MOLT-4 is 10.2 µM (inactive); in the experiment with SNB-75 it was 48.2 µM (inactive); with CCRF-CEM, 4.95 µM (inactive); with CAKI-1, 8.55 µM (inactive); in the experiment on RXF 393, 11.8 µM (inactive); with SF-295, 19.9 µM (inactive). Besides, the GI50 in the experiment with RPMI-8226 was 28.4 µM (inactive); in the experiment on HOP-62 it was 10.3 µM (inactive); with NCI-H226 it was 25.7 µM (inactive); in the experiment on HL-60 it was 16.3 µM (inactive).

Regarding `N#CC(C#N)=CSc1ccccc1`, the GI50 was 18.7 µM (inactive) in the experiment with SK-MEL-2; 23.8 µM (inactive) in the experiment on SK-MEL-28; 48.2 µM (inactive) in the experiment with EKVX; 80.7 µM (inactive) with K562; 28.5 µM (inactive) in the experiment on SK-MEL-5; 46.2 µM (inactive) in the experiment with UACC-257. The GI50 in the experiment on MOLT-4 was 13.2 µM (inactive); in the experiment on SNB-75, 24.1 µM (inactive); in the experiment with CCRF-CEM it was 1.52 µM (inactive); in the experiment with CAKI-1, 26.2 µM (inactive); in the experiment on RXF 393, 17.2 µM (inactive); in the experiment with SF-295, 35 µM (inactive). For the same compound, the GI50 in the experiment with RPMI-8226 was 48 µM (inactive); with HOP-62 it was 55 µM (inactive); with NCI-H226, 19.5 µM (inactive); in the experiment on HL-60 it was 11.9 µM (inactive).

On to `O=C1C(Cl)C(c2cc(Br)cc(Br)c2O)N1n1cnc2ccccc2c1=O` (stereo not given), for which the GI50 was 21.1 µM (inactive) in the experiment with SK-MEL-2; 19.6 µM (inactive) in the experiment with SK-MEL-28; 25.1 µM (inactive) with EKVX; 26.2 µM (inactive) in the experiment on K562; 18.8 µM (inactive) in the experiment on SK-MEL-5; 18.7 µM (inactive) in the experiment with UACC-257. Further, the GI50 in the experiment on MOLT-4 was 7.46 µM (inactive); in the experiment on SNB-75, 25.3 µM (inactive); in the experiment with CCRF-CEM it was 9.29 µM (inactive); in the experiment with CAKI-1, 17.7 µM (inactive); in the experiment on RXF 393, 21 µM (inactive); with SF-295 it was 6.76 µM (inactive). Also, the GI50 in the experiment on RPMI-8226 was 12.6 µM (inactive); in the experiment on HOP-62 it was 24.3 µM (inactive); in the experiment with NCI-H226 it was 21.9 µM (inactive); with HL-60, 16.8 µM (inactive).

Turning to `COc1ccc(/C(C)=N/NC(N)=S)c(OC)c1`, the GI50 was > 100 µM (inactive) with SK-MEL-2; > 100 µM (inactive) in the experiment on SK-MEL-28; 63.4 µM (inactive) in the experiment with EKVX; > 100 µM (inactive) with K562; > 100 µM (inactive) in the experiment on SK-MEL-5; > 100 µM (inactive) with UACC-257. The GI50 in the experiment with MOLT-4, in the experiment on SNB-75, in the experiment with CCRF-CEM, in the experiment with CAKI-1, in the experiment on RXF 393 and with SF-295 was > 100 µM (inactive) throughout. For the same compound, the GI50 with RPMI-8226 was > 100 µM (inactive); in the experiment on HOP-62 it was > 100 µM (inactive); in the experiment with NCI-H226, > 100 µM (inactive); in the experiment on HL-60, 51.3 µM (inactive).

With `O=C(NNCc1ccccc1O)c1ccccc1O`, the GI50 with SK-MEL-2 was 4.65 µM (inactive); with SK-MEL-28 it was 8.41 µM (inactive); with EKVX, 5.89 µM (inactive); in the experiment on K562, 3.3 µM (inactive); in the experiment with SK-MEL-5, 3.06 µM (inactive); in the experiment on UACC-257 it was 29.2 µM (inactive). The GI50 in the experiment with MOLT-4 was 1.75 µM (inactive); in the experiment with SNB-75, 21.9 µM (inactive); in the experiment on CCRF-CEM, 0.735 µM (active); in the experiment with PC-3, 24.9 µM (inactive); in the experiment on CAKI-1, 9.55 µM (inactive); with RXF 393 it was 25.2 µM (inactive). Further, the GI50 in the experiment on SF-295 was 2.51 µM (inactive); with RPMI-8226, 3.27 µM (inactive); with NCI/ADR-RES, 8.85 µM (inactive); in the experiment on HOP-62 it was 7.52 µM (inactive); in the experiment on NCI-H226 it was 24 µM (inactive); with HL-60, 0.495 µM (active).

In the case of `N=C1NC(=O)N2CC12` (stereo not given) [IMEXON], the GI50 with SK-MEL-2 was > 100 µM (inactive); with SK-MEL-28, > 100 µM (inactive); in the experiment with EKVX it was > 100 µM (inactive); in the experiment on K562, 73.1 µM (inactive); in the experiment on SK-MEL-5, > 100 µM (inactive); with UACC-257, > 100 µM (inactive). Also, the GI50 was > 100 µM (inactive) in the experiment with MOLT-4; > 100 µM (inactive) in the experiment with SNB-75; 50.8 µM (inactive) in the experiment with CCRF-CEM; > 100 µM (inactive) with CAKI-1; > 100 µM (inactive) with RXF 393; > 100 µM (inactive) in the experiment with SF-295. Besides, the GI50 is > 100 µM (inactive) in the experiment on RPMI-8226, > 100 µM (inactive) in the experiment on HOP-62, > 100 µM (inactive) with NCI-H226 and 30.5 µM (inactive) with HL-60.
